Earlier results in patent US6949260B2, “Method for treatment of inflammation and pain in mammals” (Metagenics, Inc., priority 2000, dated 2005).

How the values were obtained:
[1] = tested on: human platelet; conditions: induced by arachidonic acid, adrenaline and collagen
[2] = tested on: thromboxane B2 production; conditions: in vitro

COc1cc(/C=C/C(=O)CC(=O)/C=C/c2ccc(O)c(OC)c2)ccc1O [Curcumin]
inhibition of human platelet aggregation [1]: inhibit human platelet aggregation
thromboxane B2 production from arachidonic acid [2]: inhibits thromboxane B2 production
